Measurements taken from US8952024B2, “Herbicidal pyrimidone derivatives” (E I du Pont de Nemours and Company, priority 2009, dated 2015).

How the values were obtained:
Test in all cases: Test B pre-/postemergence plant response
Format in all cases: in vivo
[1] = system: ragweed (common ragweed, Ambrosia elatior); conditions: for Ragweed plant response rating (0 to 100 scale): 62 g ai/ha, postemergence, 0 is no effect, 100 is complete control; for Plant response rating, Ragweed: Postemergence
Method in brief: (§1)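 Ratings reflect visual comparison with untreated controls 13 to 15 days after application, from 0 (no effect) to 100 (complete control). Application was preemergence to seeded loam/sand soil or postemergence to 1- to 4-leaf plants, with compound in a non-phytotoxic, surfactant-containing solvent.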

[2] = system: corn (Zea mays); conditions: for Corn plant response rating (0 to 100 scale): 62 g ai/ha, postemergence, 0 is no effect, 100 is complete control; for Plant response rating, Corn: Postemergence
Method in brief: as §1

[3] = system: kochia (Kochia scoparia); conditions: for Kochia plant response rating (0 to 100 scale): 62 g ai/ha, postemergence, 0 is no effect, 100 is complete control; for Plant response rating, Kochia: Postemergence
Method in brief: as §1

[4] = system: velvetleaf (Abutilon theophrasti); conditions: for Velvetleaf plant response rating (0 to 100 scale): 62 g ai/ha, postemergence, 0 is no effect, 100 is complete control; for Plant response rating, Velvetleaf: Postemergence
Method in brief: as §1

[5] = system: downy bromegrass (Bromus tectorum); conditions: for Bromegrass, Downy plant response rating (0 to 100 scale): 62 g ai/ha, postemergence, 0 is no effect, 100 is complete control; for Plant response rating, Bromegrass, Downy: Postemergence
Method in brief: as §1

[6] = system: Italian ryegrass (Lolium multiflorum); conditions: for Ryegrass, Italian plant response rating (0 to 100 scale): 62 g ai/ha, postemergence, 0 is no effect, 100 is complete control; for Plant response rating, Ryegrass, Italian: Postemergence
Method in brief: as §1

[7] = system: johnsongrass (Sorghum halepense); conditions: for Johnsongrass plant response rating (0 to 100 scale): 62 g ai/ha, postemergence, 0 is no effect, 100 is complete control; for Plant response rating, Johnsongrass: Postemergence
Method in brief: as §1

[8] = system: Surinam grass (Brachiaria decumbens); conditions: for Surinam Grass plant response rating (0 to 100 scale): 62 g ai/ha, postemergence, 0 is no effect, 100 is complete control; for Plant response rating, Surinam Grass: Postemergence
Method in brief: as §1

[9] = system: giant foxtail (Setaria faberii); conditions: for Foxtail, Giant plant response rating (0 to 100 scale): 62 g ai/ha, postemergence, 0 is no effect, 100 is complete control; for Plant response rating, Foxtail, Giant: Postemergence
Method in brief: as §1

[10] = system: blackgrass (Alopecurus myosuroides); conditions: for Blackgrass plant response rating (0 to 100 scale): 62 g ai/ha, postemergence, 0 is no effect, 100 is complete control; for Plant response rating, Blackgrass: Postemergence
Method in brief: as §1

[11] = system: soybean (Glycine max); conditions: for Soybean plant response rating (0 to 100 scale): 62 g ai/ha, postemergence, 0 is no effect, 100 is complete control; for Plant response rating, Soybean: Postemergence
Method in brief: as §1

[12] = system: woolly cupgrass (Eriochloa villosa); conditions: for Cupgrass, Woolly plant response rating (0 to 100 scale): 62 g ai/ha, postemergence, 0 is no effect, 100 is complete control; for Plant response rating, Cupgrass, Woolly: Postemergence
Method in brief: as §1

[13] = system: pigweed (Amaranthus retroflexus); conditions: for Pigweed plant response rating (0 to 100 scale): 62 g ai/ha, postemergence, 0 is no effect, 100 is complete control; for Plant response rating, Pigweed: Postemergence
Method in brief: as §1

[14] = 31 g ai/ha, 0 to 100 scale (0 no effect, 100 complete control)
[15] = 125 g ai/ha, scale 0 to 100 (0 no effect, 100 complete control)
[16] = 250 g ai/ha, scale 0 to 100 (0 no effect, 100 complete control), 13 to 15 days

CCCn1c(-c2cccc(C(F)(F)F)c2)ncc(C(=O)C2=C(O)CCCC2=O)c1=O [Compound 155]
Ragweed plant response rating (0 to 100 scale) ([1]; 13 to 15 days): 70 | Plant response rating, Ragweed [1, 14]: 45 | Plant response rating, Ragweed [1, 15]: 90 | Plant response rating, Ragweed [1, 16]: 95 | Corn plant response rating (0 to 100 scale) ([2]; 13 to 15 days): 25 | Plant response rating, Corn [2, 14]: 5 | Plant response rating, Corn [2, 15]: 40 | Plant response rating, Corn [2, 16]: 65 | Kochia plant response rating (0 to 100 scale) ([3]; 13 to 15 days): 100 | Plant response rating, Kochia [3, 14]: 35 | Plant response rating, Kochia [3, 15]: 100 | Plant response rating, Kochia [3, 16]: 100 | Velvetleaf plant response rating (0 to 100 scale) ([4]; 13 to 15 days): 100 | Plant response rating, Velvetleaf [4, 14]: 100 | Plant response rating, Velvetleaf [4, 15]: 100 | Plant response rating, Velvetleaf [4, 16]: 100 | Bromegrass, Downy plant response rating (0 to 100 scale) ([5]; 13 to 15 days): 30 | Plant response rating, Bromegrass, Downy [5, 14]: 5 | Plant response rating, Bromegrass, Downy [5, 15]: 35 | Plant response rating, Bromegrass, Downy [5, 16]: 50 | Ryegrass, Italian plant response rating (0 to 100 scale) ([6]; 13 to 15 days): 30 | Plant response rating, Ryegrass, Italian [6, 14]: 5 | Plant response rating, Ryegrass, Italian [6, 15]: 40 | Plant response rating, Ryegrass, Italian [6, 16]: 60 | Johnsongrass plant response rating (0 to 100 scale) ([7]; 13 to 15 days): 40 | Plant response rating, Johnsongrass [7, 14]: 10 | Plant response rating, Johnsongrass [7, 15]: 65 | Plant response rating, Johnsongrass [7, 16]: 70 | Surinam Grass plant response rating (0 to 100 scale) ([8]; 13 to 15 days): 55 | Plant response rating, Surinam Grass [8, 14]: 40 | Plant response rating, Surinam Grass [8, 15]: 65 | Plant response rating, Surinam Grass [8, 16]: 75 | Foxtail, Giant plant response rating (0 to 100 scale) ([9]; 13 to 15 days): 80 | Plant response rating, Foxtail, Giant [9, 14]: 65 | Plant response rating, Foxtail, Giant [9, 15]: 90 | Plant response rating, Foxtail, Giant [9, 16]: 95 | Blackgrass plant response rating (0 to 100 scale) ([10]; 13 to 15 days): 35 | Plant response rating, Blackgrass [10, 14]: 10 | Plant response rating, Blackgrass [10, 15]: 60 | Plant response rating, Blackgrass [10, 16]: 65 | Soybean plant response rating (0 to 100 scale) ([11]; 13 to 15 days): 95 | Plant response rating, Soybean [11, 14]: 95 | Plant response rating, Soybean [11, 15]: 100 | Plant response rating, Soybean [11, 16]: 100 | Cupgrass, Woolly plant response rating (0 to 100 scale) ([12]; 13 to 15 days): 45 | Plant response rating, Cupgrass, Woolly [12, 14]: 20 | Plant response rating, Cupgrass, Woolly [12, 15]: 65 | Plant response rating, Cupgrass, Woolly [12, 16]: 75 | Pigweed plant response rating (0 to 100 scale) ([13]; 13 to 15 days): 100 | Plant response rating, Pigweed [13, 14]: 98 | Plant response rating, Pigweed [13, 15]: 100 | Plant response rating, Pigweed [13, 16]: 100

CCCn1c(-c2cccc(Br)c2)ncc(C(=O)C2=C(O)CCCC2=O)c1=O [Compound 141]
Ragweed plant response rating (0 to 100 scale) ([1]; 13 to 15 days): 75 | Plant response rating, Ragweed [1, 14]: 65 | Plant response rating, Ragweed [1, 15]: 85 | Plant response rating, Ragweed [1, 16]: 95 | Corn plant response rating (0 to 100 scale) ([2]; 13 to 15 days): 45 | Plant response rating, Corn [2, 14]: 0 | Plant response rating, Corn [2, 15]: 45 | Plant response rating, Corn [2, 16]: 45 | Kochia plant response rating (0 to 100 scale) ([3]; 13 to 15 days): 65 | Plant response rating, Kochia [3, 14]: 20 | Plant response rating, Kochia [3, 15]: 85 | Plant response rating, Kochia [3, 16]: 90 | Velvetleaf plant response rating (0 to 100 scale) ([4]; 13 to 15 days): 95 | Plant response rating, Velvetleaf [4, 14]: 75 | Plant response rating, Velvetleaf [4, 15]: 98 | Plant response rating, Velvetleaf [4, 16]: 98 | Bromegrass, Downy plant response rating (0 to 100 scale) ([5]; 13 to 15 days): 5 | Plant response rating, Bromegrass, Downy [5, 14]: 0 | Plant response rating, Bromegrass, Downy [5, 15]: 10 | Plant response rating, Bromegrass, Downy [5, 16]: 45 | Ryegrass, Italian plant response rating (0 to 100 scale) ([6]; 13 to 15 days): 0 | Plant response rating, Ryegrass, Italian [6, 14]: 0 | Plant response rating, Ryegrass, Italian [6, 15]: 0 | Plant response rating, Ryegrass, Italian [6, 16]: 5 | Johnsongrass plant response rating (0 to 100 scale) ([7]; 13 to 15 days): 15 | Plant response rating, Johnsongrass [7, 14]: 15 | Plant response rating, Johnsongrass [7, 15]: 50 | Plant response rating, Johnsongrass [7, 16]: 65 | Surinam Grass plant response rating (0 to 100 scale) ([8]; 13 to 15 days): 65 | Plant response rating, Surinam Grass [8, 14]: 40 | Plant response rating, Surinam Grass [8, 15]: 70 | Plant response rating, Surinam Grass [8, 16]: 75 | Foxtail, Giant plant response rating (0 to 100 scale) ([9]; 13 to 15 days): 75 | Plant response rating, Foxtail, Giant [9, 14]: 75 | Plant response rating, Foxtail, Giant [9, 15]: 80 | Plant response rating, Foxtail, Giant [9, 16]: 85 | Blackgrass plant response rating (0 to 100 scale) ([10]; 13 to 15 days): 5 | Plant response rating, Blackgrass [10, 14]: 5 | Plant response rating, Blackgrass [10, 15]: 10 | Plant response rating, Blackgrass [10, 16]: 25 | Soybean plant response rating (0 to 100 scale) ([11]; 13 to 15 days): 70 | Plant response rating, Soybean [11, 14]: 70 | Plant response rating, Soybean [11, 15]: 75 | Plant response rating, Soybean [11, 16]: 90 | Cupgrass, Woolly plant response rating (0 to 100 scale) ([12]; 13 to 15 days): 65 | Plant response rating, Cupgrass, Woolly [12, 14]: 65 | Plant response rating, Cupgrass, Woolly [12, 15]: 65 | Plant response rating, Cupgrass, Woolly [12, 16]: 70 | Pigweed plant response rating (0 to 100 scale) ([13]; 13 to 15 days): 75 | Plant response rating, Pigweed [13, 14]: 60 | Plant response rating, Pigweed [13, 15]: 95 | Plant response rating, Pigweed [13, 16]: 98
